Where two headings read alike, the source gives them in different places.
Key:
[1] = system: HCV 1a Wild-type replicon; assay: microbe, parasite or virus in culture; settings: Hepatitis C virus, Huh-7, read-out: Mean EC50 (nM) ± SD
[2] = system: BVDV, HRV-16, Flu-B; assay: Virus-cell protection assay, all tested viruses; type: cell-based; settings: Bovine viral diarrhea virus isolates and strains, HRV16, all of BVDV, read-out: EC50 against any of the tested viruses
[3] = system: HCV genotype 5a NS5A replicon cells; assay: Standard 3-day HCV replicon assay; type: cell-based; settings: Hepatitis C virus, 72 h
[4] = system: HCV genotype 6a NS5A replicon cells; assay: Standard 3-day HCV replicon assay; type: cell-based; settings: Hepatitis C virus, 72 h
[5] = in vitro; settings: human, HeLa cells (uninfected; HeLa H1A in the text)
[6] = system: influenza B virus (Flu-B); assay: Virus-cell protection assay; type: cell-based; settings: cell line MDCK
[7] = system: HCV genotype 1b replicon cells; assay: Standard 3-day HCV replicon assay; type: cell-based; settings: Hepatitis C virus, 72 h, 3 days, 5% fetal bovine serum
[8] = system: HCV genotype 1a replicon cells; assay: Standard 3-day HCV replicon assay; type: cell-based; settings: Hepatitis C virus, 72 h, 3 days, 5% fetal bovine serum
[9] = system: HCV genotype 3a NS5A replicon cells; assay: Standard 3-day HCV replicon assay; type: cell-based; settings: Hepatitis C virus, 72 h
[10] = system: Wild-type HCV 1b replicon; type: cell-based; settings: Hepatitis C virus, read-out: Mean EC50 (nM)
[11] = system: bovine viral diarrhea virus (BVDV); assay: Virus-cell protection assay; type: cell-based; settings: Bovine viral diarrhea virus isolates and strains, cell line BT
[12] = system: HCV genotype 4a NS5A replicon cells; assay: Standard 3-day HCV replicon assay; type: cell-based; settings: Hepatitis C virus, 72 h
[13] = in vitro; settings: cattle, BT cells (uninfected)
[14] = in vitro; settings: dog, MDCK cells (uninfected)
[15] = system: HCV genotype 2a NS5A replicon cells; assay: Standard 3-day HCV replicon assay; type: cell-based; settings: Hepatitis C virus, 72 h
[16] = system: HCV genotype 7a NS5A replicon cells; assay: Standard 3-day HCV replicon assay; type: cell-based; settings: Hepatitis C virus, 72 h
[17] = system: HCV 3a NS5A Y93H replicon cells; type: cell-based; settings: read-out: Mean EC50 (nM) ±SD; HCV genotype 3a, variant Y93H*; replicon cells from cell passage assay

COC(=O)N[C@H](C(=O)N1CCC[C@H]1c1ncc(-c2ccc3cc(-c4ccc5nc([C@@H]6CCCN6C(=O)[C@@H](NC(=O)OC)C(C)C)[nH]c5c4)ccc3c2)[nH]1)C(C)C [ASC16, Ravidasvir]
EC50 [1]: 0.03 nM | EC50 [2]: > 3300 nM | EC50 [3]: 0.03 ng/mL | EC90 [3]: 0.1 ng/mL | EC50 ([3]; read-out: EC50 (nM) Mean ± SD): 0.04 ± 0.01 nM | EC90 ([3]; read-out: EC90 (nM) Mean ± SD): 0.12 ± 0.02 nM | EC50 [4]: 0.25 ng/mL | EC90 [4]: 0.92 ng/mL | EC50 ([4]; read-out: EC50 (nM) Mean ± SD): 0.3 ± 0.1 nM | EC90 ([4]; read-out: EC90 (nM) Mean ± SD): 1.1 ± 0.3 nM | CC50 [5]: > 3300 nM | EC50 [6]: > 5000 nM | EC50 ([7]; read-out: EC50): 0.015 ng/mL | EC50 ([7]; read-out: EC50 (nM) Mean ± SD): 0.02 ± 0.002 nM | EC90 ([7]; read-out: EC90): 0.02 ng/mL | EC90 ([7]; read-out: EC90 (nM) Mean ± SD): 0.03 ± 0.004 nM | EC50 ([8]; read-out: EC50): 0.09 ng/mL | EC50 ([8]; read-out: EC50 (nM) Mean ± SD): 0.12 ± 0.01 nM | EC90 ([8]; read-out: EC90): 0.24 ng/mL | EC90 ([8]; read-out: EC90 (nM) Mean ± SD): 0.32 ± 0.02 nM | EC50 [9]: 0.95 ng/mL | EC90 [9]: 2.8 ng/mL | EC50 ([9]; read-out: EC50 (nM) Mean ± SD): 1.14 ± 0.3 nM | EC90 ([9]; read-out: EC90 (nM) Mean ± SD): 3.35 ± 1.3 nM | EC50 [10]: 0.01 nM | EC50 [11]: > 10000 nM | EC50 [12]: 0.04 ng/mL | EC90 [12]: 0.11 ng/mL | EC50 ([12]; read-out: EC50 (nM) Mean ± SD): 0.05 ± 0.01 nM | EC90 ([12]; read-out: EC90 (nM) Mean ± SD): 0.13 ± 0.015 nM | CC50 [13]: > 10000 nM | CC50 [14]: > 5000 nM | EC50 [15]: 0.12 ng/mL | EC90 [15]: 0.38 ng/mL | EC50 ([15]; read-out: EC50 (nM) Mean ± SD): 0.14 ± 0.03 nM | EC90 ([15]; read-out: EC90 (nM) Mean ± SD): 0.45 ± 0.1 nM | EC50 [16]: 0.06 ng/mL | EC90 [16]: 0.17 ng/mL | EC50 ([16]; read-out: EC50 (nM) Mean ± SD): 0.07 ± 0.02 nM | EC90 ([16]; read-out: EC90 (nM) Mean ± SD): 0.2 ± 0.05 nM | EC50 [17]: 1040 nM
